Values joined by “and” are separate entries in the source; they are usually repeats but may differ in a detail not shown here. Identical values can stand only once.
Tests used:
[1] = Clonogenic assay of human CD34-positive HSPCs from healthy donors, 10 days (LC50); format: cell-based; set-up: Relative number of colonies (% DMSO): unit of the concentration uncertain; details: human
Protocol: (§1) Cultures were incubated at 37 °C in 10% CO2 for 10 days in presence of 10 μg/mL rhIL-3 (#200-03, Pepro Tech), 25 μg/mL rhSCF (#300-07, Pepro Tech), 25 μg/mL rhFLT3-L (#300-19, Pepro Tech), rhIL-6 (#200-06, Pepro Tech), 500 nM StemRegenin 1 (SR1; #1227633-49-9, Stem Cell Technologies) and 35 nM UM-171 (#72914, Stem Cell Technologies)[93],[94], then stained with acetyl-cholinesterase and counted for the number of colonies.

[2] = system: normal human CD34-positive HSPCs; experiment: as above; format: cell-based; set-up: Relative number of colonies (% DMSO): unit of the concentration uncertain
Protocol: as §1

[3] = system: ETP12 and ALL8 patient-derived xenografts; experiment: Xenograft models of human T-ALL (ETP12, ALL8): leukemic burden in blood, bone marrow, spleen; spleen weight; format: in vivo
Protocol: Patient-derived xenograft models were established as previously described[97],[98]. All experiments were pre-approved by the Human Research Ethics Committee of the University of New South Wales (UNSW), the UNSW Animal Care and Ethics Committee, the Alfred Health Human Ethics Committee and the AMREP Animal Ethics Committee. For transplantation assays, 10^6 splenocytes harvested from successfully engrafted primary human ETP-ALL or T-ALL xenografts were injected into nonobese diabetic/severe combined immunodeficient (NOD.Cg-Prkdc^scid, also termed NOD/SCID) or NOD/SCID/Il2rg^tm1wjl/SzJ (NSG) mice[99]. Moreover, 1.5 × 10^6 cells splenocytes harvested from successfully engrafted patient-derived AML xenografts were injected into nonobese diabetic/severe immunodeficient (NOD.Cg-Rag1^tm1MomIl2rg^tm1wjl/SzJ, also termed NRG) mice expressing human IL-3, human GM-CSF and human SCF from the SGM3 triple transgene (NRGS)[100]. Engraftment into recipients was monitored by FACS analysis of peripheral blood as previously described. […] Both males and females were used. […] Kaplan–Meier survival and statistical analyses were performed using GraphPad Prism. 6.0 software (GraphPad Software, Inc.).
Spleen and sternum from recipients were collected, incubated at least 24 h in 3.7% neutral buffered formalin (pH 7.4), embedded in paraffin and sectioned at 8 μm onto Superforst-Plus slides. Samples were incubated with an anti-human CD45 antibody (Dako, #M0701) in Dako Autostainer Plus solution, then incubated with a sheep anti-mouse IgG conjugated to HRP and processed as per standard protocols using 3,3’ Diaminobenzidine staining (#ab64238, Abcam) for all immunoblots, as previously described. Samples were imaged and annotated using an Aperio ScanScope and software system (Leica Biosystems). […]
(blue circles) and ALL8 (red open circles) 24 hours after the last dose of drugs was administered.
therapy. Median is indicated (bar) with Mean ± SEM indicated for ETP12 and ALL8, 2-way ANOVA
period of administration is indicated in light grey.

[4] = system: pStat5 and Hes1 in DN3a cells; experiment: pStat5 and Hes1 in DN3a cells from treated Lmo2^Tg mice (flow cytometry); format: in vivo, mouse
Protocol: The synthesis of Dynole 34-2 and Dyngo 4a compounds was performed as previously described[32],[33] and was kindly provided by A. McCluskey. For in vitro assays, the specific Dynamin inhibitors Dynole 34-2, Dyngo 4a and Dynasore (#S8047, Selleckchem, Sapphire Bioscience Pty Ltd, Redfern NSW, Australia) were made as stock solutions in 100% dimethyl sulfoxide (DMSO), which were stored frozen. These compounds were diluted in 50% v/v DMSO/20 mM Tris-HCl pH 7.4 immediately prior to use. For in vivo administration, Dynole 34-2 was resuspended in pre-warmed HRC#5 (Pharmatek, San Diego CA, USA) 1 : 9 phosphate-buffered saline (PBS) 1× pH 7.4 at 37 °C, and sonicated 10 times for 30 s using a Bioruptor Plus (Biogenode) immediately prior to injection at 30 mg/kg, twice daily.
Phosphoflow analysis was performed as previously described. Briefly, 2 × 10^6 cells stained for surface markers were subsequently resuspended into PBS 1× + 4% v/v paraformaldehyde and incubated for 10 min at 4 °C for fixation. Fixed cells were washed twice using PBS 1×, then resuspended in pre-chilled at −20 °C Perm Buffer III (BD Pharmingen) and incubated 30 min at 4 °C for permeabilization. Cells were washed twice using PBS 1× and incubated overnight at 4 °C in PBS 1× + 2% v/v fetal calf serum (FCS) with Cell Signalling purified antibodies (Genesearch Pty Ltd, Arundel QLD, Australia) against pSTAT5 (Tyr694; #9359), phospho-p38 MAPK (Thr180/Tyr182; #4511), phospho-p44/42 (Erk1/2; #9102), phospho-S6 (Ser235/236; #4856) and phospho-Akt (Ser473; #9271) or isotype control. For intracellular HES1 detection, cells stained for surface markers were subsequently fixed and permeabilized using the BD Cytofix/Cytoperm^TM Kit and incubated overnight at 4 °C in PBS 1× + 2% v/v FCS with a purified antibody against HES1 (D6PU; #11988, Cell Signalling) or isotype control. After staining with primary antibodies for phosphoflow or intracellular detection, cells were incubated in permeabilization buffer with donkey Alexa Fluor 488-conjugated anti-rabbit secondary antibody (A-21206, lot #1910751, Molecular Probes, Invitrogen) or goat Alexa Fluor 546-conjugated anti-rabbit secondary antibody (A-11035, lot #1904467, Molecular Probes, Invitrogen) for 1 h on ice, and washed twice in PBS 1×. Fluorescence-activated cell sorting (FACS) analysis was performed using LSRII and LSR Fortessa cytometers, following the gating strategies described in Supplementary Fig. 11. Cell sorting was performed with a FACSAria or BD Influx.

CCCCCCCCNC(=O)C(C#N)=Cc1cn(CCCN(C)C)c2ccccc12 [Dynole 34-2, 2-Cyano-N-octyl-3-(1-(3-dimethylaminopropyl)-1H-indol-3-yl)-acrylamide]
CC50 at 10 days ([1]; normal human CD34-positive HSPCs, clonogenic assay 10 days, Mean ± SEM): 23 ± 5.72 µM
CC50 at 10 days ([1]; sample 06-02-2018 CD34): 8.8 µM
CC50 at 10 days ([1]; sample 10-03-2018 CD34): 9.85 µM
CC50 at 10 days ([1]; sample 18/03/2016 CD34): 7.09 µM
CC50 at 10 days ([1]; sample 21-04-2018 CD34): 7.34 µM
CC50 at 10 days ([1]; sample 22/05/2018 CD34): 17.2 µM
CC50 at 10 days ([1]; sample 24/06/2016 CD34): 11.3 µM
Relative number of colonies (% DMSO) ([2]; CD34_1003, dose 0.04 (unit uncertain)): 99.5 % DMSO and 94.6 % DMSO
Relative number of colonies (% DMSO) ([2]; CD34_1003, dose 0.2 (unit uncertain)): 88.8 % DMSO and 76.1 % DMSO
Relative number of colonies (% DMSO) ([2]; CD34_1003, dose 1 (unit uncertain)): 82.9 % DMSO and 71.2 % DMSO
Relative number of colonies (% DMSO) ([2]; CD34_1003, dose 5 (unit uncertain)): 48.8 % DMSO and 56.6 % DMSO
Relative number of colonies (% DMSO) ([2]; CD34_1003, dose 25 (unit uncertain)): 0.0 % DMSO
Relative number of colonies (% DMSO) ([2]; CD34_1602, dose 0.04 (unit uncertain)): 116.1 % DMSO and 109.5 % DMSO
Relative number of colonies (% DMSO) ([2]; CD34_1602, dose 0.2 (unit uncertain)): 118.9 % DMSO and 100.0 % DMSO
Relative number of colonies (% DMSO) ([2]; CD34_1602, dose 1 (unit uncertain)): 106.3 % DMSO and 87.8 % DMSO
Relative number of colonies (% DMSO) ([2]; CD34_1602, dose 5 (unit uncertain)): 89.5 % DMSO and 73.0 % DMSO
Relative number of colonies (% DMSO) ([2]; CD34_1602, dose 25 (unit uncertain)): 0.0 % DMSO
Relative number of colonies (% DMSO) ([2]; CD34_2104, dose 0.04 (unit uncertain)): 102.6 % DMSO
Relative number of colonies (% DMSO) ([2]; CD34_2104, dose 0.2 (unit uncertain)): 104.6 % DMSO and 97.4 % DMSO
Relative number of colonies (% DMSO) ([2]; CD34_2104, dose 1 (unit uncertain)): 68.7 % DMSO and 76.9 % DMSO
Relative number of colonies (% DMSO) ([2]; CD34_2104, dose 25 (unit uncertain)): 0.0 % DMSO
Absolute numbers human CD45+ cells ([3]; ALL8, BM): 6540000 and 4120000 and 6090000
Proportion of hCD45+ (%) in peripheral blood ([3]; ALL8, Time (weeks) 1): 1.0%
Proportion of hCD45+ (%) in peripheral blood ([3]; ALL8, Time (weeks) 5): 2.0%
Proportion of hCD45+ (%) in peripheral blood ([3]; ALL8, Time (weeks) 6): 64.0%
Absolute numbers human CD45+ cells ([3]; ETP12, BM): 4510000 and 5170000 and 3540000
Proportion of hCD45+ (%) in peripheral blood ([3]; ETP12, Time (weeks) 1): 0.1% and 0.0% and 0.2%
Proportion of hCD45+ (%) in peripheral blood ([3]; ETP12, Time (weeks) 2): 0.2% and 0.1% and 0.3% and 0.0%
Proportion of hCD45+ (%) in peripheral blood ([3]; ETP12, Time (weeks) 3): 2.8% and 0.4% and 7.0% and 8.6% and 4.0% and 0.0% and 0.2%
Proportion of hCD45+ (%) in peripheral blood ([3]; ETP12, Time (weeks) 7): 35.2%
patient-derived leukemic cells in bone marrow and spleen, Dynole 34-2 combined with chemotherapy compared with chemotherapy alone ([3]; ETP12 and ALL8 recipients, 24 h after last administration, in words): at least tenfold less
leukemic cells in the peripheral blood, bone marrow and spleen, single agent ([3]; ETP12 and ALL8 xenografts, result in words): significant reduction in leukemic cells
Spleen weight ([3]; PDX ALL8): 0.116 g and 0.076 g and 0.075 g
Spleen weight ([3]; PDX ETP12): 0.157 g and 0.109 g and 0.091 g
Hes1 (MFI) ([4]; DN3a cells from treated Lmo2^Tg mice): 22166 MFI and 17427 MFI and 19107 MFI and 15447 MFI
Hes1 (MFI) ([4]; GFPhi DN3a cells): 2603 MFI and 2496 MFI and 2588 MFI and 2307 MFI and 2171 MFI
pStat5 (MFI) ([4]; GFPhi DN3a cells): 1253 MFI and 1075 MFI and 1590 MFI and 1503 MFI and 1019 MFI
Hes1 (MFI) ([4]; GFPlo DN3a cells): 2885 MFI and 2559 MFI and 2562 MFI and 2408 MFI and 2317 MFI
pStat5 (MFI) ([4]; GFPlo DN3a cells): 1761 MFI and 1433 MFI and 1767 MFI and 1648 MFI and 1460 MFI

— paper PMC7719179, “Small molecule inhibition of Dynamin-dependent endocytosis targets multiple niche signals and impairs leukemia stem cells” (Nature Communications, 2020)
